Legend:
[1] = biological target: Prothrombin (Homo sapiens, UniProt P00734); type: functional
[2] = biological target: D(3) dopamine receptor (Homo sapiens, UniProt P35462)
[3] = biological target: T1, Prostaglandin G/H synthase 1 (Homo sapiens, UniProt P23219); type: functional
[4] = biological target: T2, Muscarinic acetylcholine receptor M2 (Homo sapiens, UniProt P08172)
T2 sequence (P08172 whole entry): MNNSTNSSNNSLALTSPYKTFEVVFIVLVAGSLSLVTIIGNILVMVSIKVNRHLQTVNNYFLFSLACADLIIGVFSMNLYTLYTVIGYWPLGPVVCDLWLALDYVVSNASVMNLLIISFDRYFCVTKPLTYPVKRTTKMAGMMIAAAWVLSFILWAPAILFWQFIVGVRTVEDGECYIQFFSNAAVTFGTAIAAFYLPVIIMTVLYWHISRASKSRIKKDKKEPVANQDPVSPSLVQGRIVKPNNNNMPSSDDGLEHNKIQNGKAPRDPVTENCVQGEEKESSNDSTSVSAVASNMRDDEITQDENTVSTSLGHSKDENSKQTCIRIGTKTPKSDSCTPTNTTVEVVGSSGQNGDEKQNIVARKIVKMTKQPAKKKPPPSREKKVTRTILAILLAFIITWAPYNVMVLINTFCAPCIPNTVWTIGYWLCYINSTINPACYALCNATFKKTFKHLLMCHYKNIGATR

[5] = biological target: 3',5'-cyclic-AMP phosphodiesterase 4A (Homo sapiens, UniProt P27815); type: functional
[6] = biological target: Sodium-dependent noradrenaline transporter (Homo sapiens, UniProt P23975)
[7] = biological target: D(1A) dopamine receptor (Homo sapiens, UniProt P21728)
[8] = biological target: Sodium-dependent dopamine transporter (Homo sapiens, UniProt Q01959)
[9] = biological target: T3, Amine oxidase [flavin-containing] A (Homo sapiens, UniProt P21397); type: functional
T3 sequence (P21397 whole entry): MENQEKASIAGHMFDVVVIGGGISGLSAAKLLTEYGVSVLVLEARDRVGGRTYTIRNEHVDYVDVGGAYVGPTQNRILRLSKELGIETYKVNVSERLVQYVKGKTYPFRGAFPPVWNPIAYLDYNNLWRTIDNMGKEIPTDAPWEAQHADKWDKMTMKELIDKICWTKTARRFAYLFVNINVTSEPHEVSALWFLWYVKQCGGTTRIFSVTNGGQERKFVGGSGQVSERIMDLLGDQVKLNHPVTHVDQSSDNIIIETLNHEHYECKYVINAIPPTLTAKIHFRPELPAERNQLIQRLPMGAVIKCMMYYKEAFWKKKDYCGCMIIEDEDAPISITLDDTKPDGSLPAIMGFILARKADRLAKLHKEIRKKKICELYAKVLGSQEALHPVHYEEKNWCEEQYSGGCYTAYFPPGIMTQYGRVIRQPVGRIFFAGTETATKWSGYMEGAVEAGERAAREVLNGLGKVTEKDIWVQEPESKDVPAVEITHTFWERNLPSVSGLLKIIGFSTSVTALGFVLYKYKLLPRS

[10] = biological target: Acetylcholinesterase (Homo sapiens, UniProt P22303); type: functional
[11] = biological target: T4, Thromboxane A2 receptor (Homo sapiens, UniProt P21731); type: functional, cell-based
T4 sequence (P21731 whole entry): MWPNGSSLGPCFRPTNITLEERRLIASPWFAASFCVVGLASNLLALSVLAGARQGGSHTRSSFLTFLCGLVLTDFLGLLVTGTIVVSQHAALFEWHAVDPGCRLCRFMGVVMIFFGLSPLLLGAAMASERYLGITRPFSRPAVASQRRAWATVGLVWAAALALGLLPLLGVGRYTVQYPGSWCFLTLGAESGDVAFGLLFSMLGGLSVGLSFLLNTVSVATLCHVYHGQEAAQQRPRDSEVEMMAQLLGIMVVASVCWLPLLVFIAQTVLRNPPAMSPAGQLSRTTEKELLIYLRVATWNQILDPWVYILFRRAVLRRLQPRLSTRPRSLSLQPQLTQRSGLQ

[12] = biological target: Histamine H3 receptor (Homo sapiens, UniProt Q9Y5N1)
[13] = biological target: T5, 5-hydroxytryptamine receptor 1A (Homo sapiens, UniProt P08908)
T5 sequence (P08908 whole entry): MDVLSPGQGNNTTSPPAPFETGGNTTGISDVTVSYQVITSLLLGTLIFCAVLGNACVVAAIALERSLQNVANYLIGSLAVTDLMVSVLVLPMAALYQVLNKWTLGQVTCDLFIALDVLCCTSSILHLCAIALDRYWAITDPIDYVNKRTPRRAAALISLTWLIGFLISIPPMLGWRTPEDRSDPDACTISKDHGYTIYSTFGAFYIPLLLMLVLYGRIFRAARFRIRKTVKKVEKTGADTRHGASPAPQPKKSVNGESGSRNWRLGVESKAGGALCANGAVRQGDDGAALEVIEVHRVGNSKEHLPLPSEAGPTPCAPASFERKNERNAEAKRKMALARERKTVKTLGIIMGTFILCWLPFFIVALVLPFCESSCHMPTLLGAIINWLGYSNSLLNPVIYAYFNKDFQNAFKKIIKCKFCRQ

[14] = biological target: T6, Alpha-1A adrenergic receptor (Homo sapiens, UniProt P35348); type: functional, cell-based
T6 sequence (P35348 whole entry): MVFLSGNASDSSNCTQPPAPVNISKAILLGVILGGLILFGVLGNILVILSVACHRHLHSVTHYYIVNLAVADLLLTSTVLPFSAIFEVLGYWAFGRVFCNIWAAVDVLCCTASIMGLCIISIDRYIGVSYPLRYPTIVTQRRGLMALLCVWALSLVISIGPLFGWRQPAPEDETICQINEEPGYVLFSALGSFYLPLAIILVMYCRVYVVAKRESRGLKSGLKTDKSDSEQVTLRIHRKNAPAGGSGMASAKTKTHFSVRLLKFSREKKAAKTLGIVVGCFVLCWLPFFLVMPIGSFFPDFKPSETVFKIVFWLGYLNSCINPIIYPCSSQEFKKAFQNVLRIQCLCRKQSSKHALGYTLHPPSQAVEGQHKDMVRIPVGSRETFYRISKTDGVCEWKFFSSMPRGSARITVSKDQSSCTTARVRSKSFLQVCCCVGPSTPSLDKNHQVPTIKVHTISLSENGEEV

[15] = biological target: cGMP-inhibited 3',5'-cyclic phosphodiesterase 3A (Homo sapiens, UniProt Q14432); type: functional
[16] = biological target: T1, Prostaglandin G/H synthase 1; type: functional; remark: listed apart in the source

Measured: AC50
Further: assay procedure not described here.

T1 sequence (P23219 whole entry): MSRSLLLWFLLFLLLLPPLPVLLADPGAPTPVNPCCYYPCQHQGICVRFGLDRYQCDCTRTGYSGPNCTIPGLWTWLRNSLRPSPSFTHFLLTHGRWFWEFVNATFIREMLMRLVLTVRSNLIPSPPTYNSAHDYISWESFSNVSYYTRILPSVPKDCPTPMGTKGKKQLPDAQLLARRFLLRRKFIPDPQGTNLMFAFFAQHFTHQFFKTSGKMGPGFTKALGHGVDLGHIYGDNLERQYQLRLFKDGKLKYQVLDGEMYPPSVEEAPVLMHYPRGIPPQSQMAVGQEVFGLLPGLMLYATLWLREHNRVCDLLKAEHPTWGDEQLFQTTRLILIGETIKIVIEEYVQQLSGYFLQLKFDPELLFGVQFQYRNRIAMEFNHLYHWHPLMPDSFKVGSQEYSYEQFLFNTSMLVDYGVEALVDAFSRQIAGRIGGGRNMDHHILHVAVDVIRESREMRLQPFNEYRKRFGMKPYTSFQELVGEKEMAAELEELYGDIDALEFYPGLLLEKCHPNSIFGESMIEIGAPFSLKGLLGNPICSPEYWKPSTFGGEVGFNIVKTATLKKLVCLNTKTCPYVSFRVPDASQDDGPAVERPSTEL
Sequence of Acetylcholinesterase (P22303 whole entry): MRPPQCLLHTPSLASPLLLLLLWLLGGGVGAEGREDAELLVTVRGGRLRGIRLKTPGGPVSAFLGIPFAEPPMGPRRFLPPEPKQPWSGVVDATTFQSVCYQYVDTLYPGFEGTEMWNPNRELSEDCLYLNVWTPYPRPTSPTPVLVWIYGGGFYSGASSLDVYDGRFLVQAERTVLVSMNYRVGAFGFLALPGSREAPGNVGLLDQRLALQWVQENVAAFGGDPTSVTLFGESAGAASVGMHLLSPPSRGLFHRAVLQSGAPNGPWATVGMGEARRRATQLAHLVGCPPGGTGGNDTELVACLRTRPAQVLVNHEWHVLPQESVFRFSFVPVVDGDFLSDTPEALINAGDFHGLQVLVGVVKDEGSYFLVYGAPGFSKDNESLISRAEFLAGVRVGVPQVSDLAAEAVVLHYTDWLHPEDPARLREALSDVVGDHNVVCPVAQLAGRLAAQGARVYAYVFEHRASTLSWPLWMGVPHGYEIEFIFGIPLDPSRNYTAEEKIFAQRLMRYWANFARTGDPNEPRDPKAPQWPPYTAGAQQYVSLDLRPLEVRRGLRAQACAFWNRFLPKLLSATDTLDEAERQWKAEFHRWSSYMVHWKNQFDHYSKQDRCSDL
Sequence of Sodium-dependent noradrenaline transporter (P23975 whole entry): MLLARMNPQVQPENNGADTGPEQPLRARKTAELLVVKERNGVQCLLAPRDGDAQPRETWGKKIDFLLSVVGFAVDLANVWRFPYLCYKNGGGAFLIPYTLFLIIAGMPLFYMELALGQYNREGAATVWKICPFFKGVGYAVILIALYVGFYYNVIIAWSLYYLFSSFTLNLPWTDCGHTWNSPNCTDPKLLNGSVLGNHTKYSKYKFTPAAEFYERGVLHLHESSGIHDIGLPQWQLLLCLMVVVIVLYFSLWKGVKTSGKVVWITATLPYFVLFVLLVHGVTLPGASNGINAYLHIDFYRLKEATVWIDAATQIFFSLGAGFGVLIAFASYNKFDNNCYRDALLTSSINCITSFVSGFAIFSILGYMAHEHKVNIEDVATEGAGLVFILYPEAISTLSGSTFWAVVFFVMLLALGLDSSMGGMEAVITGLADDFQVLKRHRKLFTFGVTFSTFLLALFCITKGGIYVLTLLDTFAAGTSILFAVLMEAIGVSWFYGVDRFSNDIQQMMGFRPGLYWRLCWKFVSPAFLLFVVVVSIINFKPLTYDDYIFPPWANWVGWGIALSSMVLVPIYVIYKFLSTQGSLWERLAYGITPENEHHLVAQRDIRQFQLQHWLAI
Sequence of cGMP-inhibited 3',5'-cyclic phosphodiesterase 3A (Q14432 whole entry): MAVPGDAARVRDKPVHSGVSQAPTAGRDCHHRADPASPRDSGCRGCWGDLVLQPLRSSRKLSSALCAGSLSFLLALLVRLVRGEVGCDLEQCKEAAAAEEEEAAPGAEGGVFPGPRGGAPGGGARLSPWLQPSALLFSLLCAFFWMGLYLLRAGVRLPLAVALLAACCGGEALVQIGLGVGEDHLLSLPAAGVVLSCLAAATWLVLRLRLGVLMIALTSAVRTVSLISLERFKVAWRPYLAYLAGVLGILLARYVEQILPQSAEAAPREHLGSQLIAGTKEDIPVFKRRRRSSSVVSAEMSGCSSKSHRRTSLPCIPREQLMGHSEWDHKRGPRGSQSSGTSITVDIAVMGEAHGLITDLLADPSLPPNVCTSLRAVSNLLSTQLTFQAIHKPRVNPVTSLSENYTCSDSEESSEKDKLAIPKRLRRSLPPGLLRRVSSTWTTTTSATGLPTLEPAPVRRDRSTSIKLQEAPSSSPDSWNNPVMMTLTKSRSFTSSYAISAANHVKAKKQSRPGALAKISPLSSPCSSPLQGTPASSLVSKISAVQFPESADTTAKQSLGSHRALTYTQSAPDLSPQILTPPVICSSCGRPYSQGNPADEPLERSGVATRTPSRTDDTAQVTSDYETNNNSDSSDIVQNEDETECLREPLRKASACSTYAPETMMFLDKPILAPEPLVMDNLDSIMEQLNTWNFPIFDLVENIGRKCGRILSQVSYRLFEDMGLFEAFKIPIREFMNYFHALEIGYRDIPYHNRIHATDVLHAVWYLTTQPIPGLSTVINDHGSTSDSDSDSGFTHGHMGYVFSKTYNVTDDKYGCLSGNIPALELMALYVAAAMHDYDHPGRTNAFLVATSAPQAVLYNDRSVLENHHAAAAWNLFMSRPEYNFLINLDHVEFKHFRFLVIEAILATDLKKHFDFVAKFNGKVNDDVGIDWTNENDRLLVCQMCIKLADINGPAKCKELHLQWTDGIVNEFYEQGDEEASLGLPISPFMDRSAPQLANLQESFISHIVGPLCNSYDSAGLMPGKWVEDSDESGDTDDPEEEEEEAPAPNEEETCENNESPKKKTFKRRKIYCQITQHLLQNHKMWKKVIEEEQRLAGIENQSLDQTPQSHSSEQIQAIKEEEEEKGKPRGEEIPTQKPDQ
Sequence of 3',5'-cyclic-AMP phosphodiesterase 4A (P27815 whole entry): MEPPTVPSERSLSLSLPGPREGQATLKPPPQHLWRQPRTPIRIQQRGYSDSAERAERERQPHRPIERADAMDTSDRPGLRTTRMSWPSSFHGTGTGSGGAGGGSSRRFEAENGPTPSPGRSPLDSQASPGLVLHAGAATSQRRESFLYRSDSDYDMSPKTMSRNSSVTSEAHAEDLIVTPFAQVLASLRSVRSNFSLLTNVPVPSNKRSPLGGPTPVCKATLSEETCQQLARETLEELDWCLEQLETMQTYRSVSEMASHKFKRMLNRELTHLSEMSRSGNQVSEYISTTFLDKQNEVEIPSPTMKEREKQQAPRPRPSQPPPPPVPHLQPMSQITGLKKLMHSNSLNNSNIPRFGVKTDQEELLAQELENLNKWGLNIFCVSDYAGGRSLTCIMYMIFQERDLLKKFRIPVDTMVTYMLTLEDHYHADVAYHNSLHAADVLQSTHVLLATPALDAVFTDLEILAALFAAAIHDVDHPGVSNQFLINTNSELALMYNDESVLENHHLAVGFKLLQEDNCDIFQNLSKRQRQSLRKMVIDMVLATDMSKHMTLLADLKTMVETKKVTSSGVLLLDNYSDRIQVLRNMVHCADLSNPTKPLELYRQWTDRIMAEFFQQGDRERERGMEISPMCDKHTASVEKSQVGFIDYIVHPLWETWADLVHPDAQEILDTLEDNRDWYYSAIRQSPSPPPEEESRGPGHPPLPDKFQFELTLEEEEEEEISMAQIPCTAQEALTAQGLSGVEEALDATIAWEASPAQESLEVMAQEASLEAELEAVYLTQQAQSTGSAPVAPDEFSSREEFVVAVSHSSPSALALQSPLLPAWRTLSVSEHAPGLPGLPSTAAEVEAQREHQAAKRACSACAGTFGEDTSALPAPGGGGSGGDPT
Sequence of D(3) dopamine receptor (P35462 whole entry): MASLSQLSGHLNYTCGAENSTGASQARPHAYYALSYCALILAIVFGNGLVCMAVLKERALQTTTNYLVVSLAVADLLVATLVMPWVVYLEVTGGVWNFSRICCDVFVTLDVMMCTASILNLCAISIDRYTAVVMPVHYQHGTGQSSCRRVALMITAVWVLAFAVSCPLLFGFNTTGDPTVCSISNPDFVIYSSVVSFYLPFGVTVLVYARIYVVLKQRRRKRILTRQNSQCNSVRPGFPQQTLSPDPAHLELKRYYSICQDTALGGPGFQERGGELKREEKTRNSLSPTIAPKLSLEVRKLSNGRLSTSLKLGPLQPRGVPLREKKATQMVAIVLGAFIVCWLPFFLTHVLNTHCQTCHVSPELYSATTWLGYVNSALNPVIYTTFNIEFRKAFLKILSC
Sequence of D(1A) dopamine receptor (P21728 whole entry): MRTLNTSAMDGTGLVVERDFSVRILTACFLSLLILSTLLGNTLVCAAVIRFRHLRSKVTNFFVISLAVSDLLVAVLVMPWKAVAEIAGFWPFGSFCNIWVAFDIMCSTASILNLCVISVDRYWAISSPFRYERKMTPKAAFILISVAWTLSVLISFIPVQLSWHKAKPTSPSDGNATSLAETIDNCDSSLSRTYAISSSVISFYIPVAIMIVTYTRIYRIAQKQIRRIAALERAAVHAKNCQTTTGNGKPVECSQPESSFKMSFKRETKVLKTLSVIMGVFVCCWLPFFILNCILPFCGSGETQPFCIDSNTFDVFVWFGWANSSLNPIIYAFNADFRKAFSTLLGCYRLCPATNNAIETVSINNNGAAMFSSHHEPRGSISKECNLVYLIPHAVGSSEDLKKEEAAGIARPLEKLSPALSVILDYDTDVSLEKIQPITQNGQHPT

CC[C@]12CCCN3CCc4c(n(c5ccccc45)[C@@](O)(C(=O)OC)C1)[C@@H]32 [VINCAMINE]
> 30 µM: all assays above
